{
  "source": "patent EP0680964B1",
  "about": "“PYRROLO [3,2-e]INDOLE DERIVATIVES, PROCESS FOR THE PREPARATION THEREOF AND THEIR USE” (UNIVERSIDAD DE SANTIAGO DE COMPOSTELA, priority 1993, dated 1995)",
  "key": {"[1]": {"test_system": "P388 leukemic tumor model", "test": "P388 antitumoral model in vivo (survival time, i.p. treatment)", "set-up": "species or system mice", "conditions": "for %C/T: average survival of tested group/average survival of controls", "method": "Normally, 1x10^6 cells in ascitic fluid was implanted i.p. in CD2F1 mice. Treatment with the agent tested i.p. began one day after the tumor had been implanted and it is continued daily up to a total of 5 injections for synthetic products and of 9 injections for raw natural products. The results are expressed as percentage of the control survival time.\nCDFl mice weighing 18-22 gr (+/- 3 gr) were implanted on day 0 of the test period o.1 ml. of a dilution of 1.0x10^7 tumor cells coming from DBA/2N mice used for the propagation of the tumor.\nOn day 1 of the test period the animals were grouped at random in groups of six animals.Each group is weighed and the average weight is written down. Each compound to be tested in diluted in 4 levels of dosis for each multidose test as of the determination of the highest nontoxic dose (v.g. 400 mg/kg; 100 mg/kg; 10 mg/kg.)\nAdministration of the test compounds is started on day 1 using volumns of 1/2 drug injected i.p. Injections are given on days 1 to 9 of the test period, unless it is indicated to the contrary. The animals are weighed on day 5, which is the one which in this system is considered the day of toxicity. Toxicity in this test system is defined as: • A. 34 % deaths up to day 5 - acute toxicity • B. C/T<85% - chronic toxicity • C. A negative average of the weight change of the animals> 4 g up to day 5 - chronic toxicity\nThe data obtained upon testing the compounds in vivo in comparison with the P388 leukemic tumor model in mice are shown in the following table: […]"}, "[2]": {"conditions": "mice, therapeutic doses; cited from earlier work"}, "HT-29": {"test_system": "HT-29", "test": "In vitro test, IC50 on HT-29", "format": "cell-based", "conditions": "Homo sapiens; HT-29, in vitro", "from_the_text": "(§1) On the other hand, the results of the tests in vitro carried out on compounds (IIIa) and (IIIb) were the following: […]"}, "A-549": {"test_system": "A-549", "test": "In vitro test, IC50 on A-549", "format": "cell-based", "conditions": "Homo sapiens, A549; A-549, in vitro", "from_the_text": "as §1"}, "P-388": {"test_system": "P-388", "test": "In vitro test, IC50 on P-388", "format": "cell-based", "conditions": "Mus musculus, P388; P-388, in vitro", "from_the_text": "as §1"}, "MEL-28": {"test_system": "MEL-28", "test": "In vitro test, IC50 on MEL-28", "format": "cell-based", "conditions": "Homo sapiens, SK-MEL-28; MEL-28, in vitro", "from_the_text": "as §1"}, "P388 model": {"test_system": "P388 model", "conditions": "cited from earlier work"}},
  "data": [
    {"compound": "COC(=O)c1cc2c(n1C)C(=O)C=C1N(C(=O)c3cc4cc(OC)c(OC)c(OC)c4[nH]3)CC3CC123", "note": "(centres unmarked) [(VI), methyl 2-(5,6,7-trimethoxy-1H-indole-2-carbonyl)-5-methyl-4-oxo-1,2,4,5,8a-hexahydrocyclopropa[c]pyrrolo[3,2-e]indole-7-carboxylate]", "values": [
      {"measurement": "%C/T", "setting": "[1]; inject. dose 0.500 mg/kg", "result": 210.9, "unit": "%"},
      {"measurement": "Significant activity (class of %C/T)", "setting": "[1]; inject. dose 0.500 mg/kg", "result": "** (Significant activity (strong): C/T > =175%)"}
    ]},
    {"compound": "methyl 2-[5-[(benzofuran-2-ylcarbonyl) amino]-1H-indol-2-carbonyl]-5-methyl-4-oxo,1,2,4,5,8,8,a-hexahydrocyclopropa[c]pyrrolo[3,2-e]indole-7-carboxylate [(IV)]", "values": [
      {"measurement": "%C/T", "setting": "[1]; inject. dose 0.300 mg/kg", "result": 251.1, "unit": "%"},
      {"measurement": "Significant activity (class of %C/T)", "setting": "[1]; inject. dose 0.300 mg/kg", "result": "** (Significant activity (strong): C/T > =175%)"}
    ]},
    {"compound": "Cc1c[nH]c2c1[C@@]13C[C@@H]1CN(C(=O)c1cc4cc(NC(=O)c5cc6ccccc6o5)ccc4[nH]1)C3=CC2=O", "note": "[Adocelesine]", "values": [
      {"measurement": "delayed lethality", "setting": "[2]", "result": "without provoking delayed lethality"}
    ]},
    {"compound": "COC(=O)c1cn(C)c2c(O)cc3c(c12)C(CCl)CN3C(=O)c1cc2cc(NC(=O)c3cc4ccccc4o3)ccc2[nH]1", "note": "(centres unmarked) [Compound (III), methyl 6-{5-[(benzofuran-2-ylcarbonyl)-amino]1H-indole-2-carbonyl}-8-chloromethyl-4-hydroxy-3-methyl-3,6,7,8,tetrahydropyrrolo[3,2-e]indole-1-carboxylate]", "values": [
      {"measurement": "%C/T", "setting": "[1]; inject. dose 0.500 mg/kg", "result": ">391.3", "unit": "%"}
    ]},
    {"compound": "COc1c(O)c2c(c3cc(C(=O)N4CCc5c4c(O)c(OC)c4[nH]c(C(=O)N6CC7CC78C6=CC(=O)c6[nH]cc(C)c68)cc54)[nH]c13)CCN2C(N)=O", "note": "(centres unmarked) [CC-1065]", "values": [
      {"measurement": "delayed lethality", "setting": "[2]", "result": "producing delayed deaths in mice at therapeutic doses"}
    ]},
    {"compound": "COC(=O)c1cn(C)c2c(OC(C)=O)cc3c(c12)C(CCl)CN3C(=O)c1cc2cc(NC(=O)c3cc4ccccc4o3)ccc2[nH]1", "note": "(centres unmarked) [IIIa, methyl 4-acetoxy-6-{5-[(benzofuran-2-yl-carbonyl)-amino]1H-indole-2-carbonyl}-8-chloromethyl-3-methyl-3,6,7,8-tetrahydropyrrolo[3,2-e]indole-1-carboxylate]", "values": [
      {"measurement": "IC50", "setting": "HT-29", "result": 0.25, "unit": "ng/mL"},
      {"measurement": "IC50", "setting": "A-549", "result": 0.05, "unit": "ng/mL"},
      {"measurement": "IC50", "setting": "P-388", "result": 0.01, "unit": "ng/mL"},
      {"measurement": "IC50", "setting": "MEL-28", "result": 0.25, "unit": "ng/mL"}
    ]},
    {"compound": "COC(=O)c1cn(C)c2c(O)cc3c(c12)C(CCl)CN3C(=O)c1cc2cc(OC)c(OC)c(OC)c2[nH]1", "note": "(centres unmarked) [Compound (V), methyl 6-(5,6,7-trimethoxy-1H-indole-2-carbonyl)-8-chloromethyl-4-hydroxy-3-methyl-3,6,7,8-tetrahydropyrrololo[3,2-e]indole-1-carboxylate]", "values": [
      {"measurement": "%C/T", "setting": "[1]; inject. dose 0.050 mg/kg", "result": 133.9, "unit": "%"},
      {"measurement": "Significant activity (class of %C/T)", "setting": "[1]; inject. dose 0.050 mg/kg", "result": "** (Significant activity (strong): C/T > =175%)"}
    ]},
    {"compound": "O=C(Nc1ccc2[nH]c(C(=O)N3CC4CC45C3=CC(=O)c3ccccc35)cc2c1)c1cc2ccccc2[nH]1", "note": "(centres unmarked) [CBI-Ind2]", "values": [
      {"measurement": "results in the P388 model in vivo", "setting": "P388 model", "result": "very good results"}
    ]}
  ]
}
